Laboratory results published in patent US10092551B2, “Spiro-thiazolones” (Hoffmann-La Roche Inc., priority 2014, dated 2018).

Each molecule was assayed against human V1a receptor (Homo sapiens (Human), UniProt P37288) (assay: human V1a receptor binding studies (3H-Vasopressin, SPA beads)). Settings: membranes of HEK293 cells transiently transfected with human V1a receptor, Ki by Cheng-Prussoff.
Experimental: The human V1a receptor was cloned by RT-PCR from total human liver RNA. The coding sequence was subcloned in an expression vector after sequencing to confirm the identity of the amplified sequence. […] Cell membranes were prepared from HEK293 cells transiently transfected with the expression vector and grown in 20 liter fermenters with the following protocol.
50 g of cells are re-suspended in 30 ml freshly prepared ice cold Lysis buffer (50 mM HEPES, 1 mM EDTA, 10 mM MgCl2 adjusted to pH=7.4+complete cocktail of protease inhibitor (Roche Diagnostics)). Homogenized with Polytron for 1 min and sonicated on ice for 2×2 minutes at 80% intensity (Vibracell sonicator). The preparation is centrifuged 20 min at 500 g at 4° C., the pellet is discarded and the supernatant centrifuged 1 hour at 43,000 g at 4° C. (19,000 rpm). The pellet is re-suspended in 12.5 ml Lysis buffer+12.5 ml Sucrose 20% and homogenized using a Polytron for 1-2 min. The protein concentration is determined by the Bradford method and aliquots are stored at −80° C. until use. For binding studies 60 mg Yttrium silicate SPA beads (Amersham) are mixed with an aliquot of membrane in binding buffer (50 mM Tris, 120 mM NaCl, 5 mM KCl, 2 mM CaCl2, 10 mM MgCl2) for 15 minutes with mixing. 50 μl of bead/membrane mixture is then added to each well of a 96 well plate, followed by 50 μl of 4 nM 3H-Vasopressin (American Radiolabeled Chemicals). For total binding measurement 100 μl of binding buffer are added to the respective wells, for non-specific binding 100 μl of 8.4 mM cold vasopressin and for compound testing 100 μl of a serial dilution of each compound in 2% DMSO. The plate is incubated 1 h at room temperature, centrifuged 1 min at 1000 g and counted on a Packard Top-Count. Non-specific binding counts are subtracted from each well and data is normalized to the maximum specific binding set at 100%. To calculate an IC 50 the curve is fitted using a non-linear regression model (XLfit) and the Ki is calculated using the Cheng-Prussoff equation.

Sequence of human V1a receptor (P37288 whole entry): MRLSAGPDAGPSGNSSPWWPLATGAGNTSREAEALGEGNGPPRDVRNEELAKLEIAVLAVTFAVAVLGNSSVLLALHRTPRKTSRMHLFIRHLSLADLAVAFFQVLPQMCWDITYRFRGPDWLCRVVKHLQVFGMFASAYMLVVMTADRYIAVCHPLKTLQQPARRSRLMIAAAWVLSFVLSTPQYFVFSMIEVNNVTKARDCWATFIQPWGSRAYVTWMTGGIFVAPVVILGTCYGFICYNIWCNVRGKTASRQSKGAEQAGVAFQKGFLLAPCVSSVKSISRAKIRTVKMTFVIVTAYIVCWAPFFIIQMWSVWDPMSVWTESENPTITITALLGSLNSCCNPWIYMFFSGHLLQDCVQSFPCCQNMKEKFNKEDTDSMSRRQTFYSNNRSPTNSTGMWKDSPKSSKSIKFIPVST

Going from `O=C1N=C(N2CCC3(CC2)OCc2ccccc23)SC1=C1CCCCC1` [Example 52, 5-cyclohexylidene-2-(1′H,3H-spiro[2-benzofuran-1,4′-piperidin]-1′-yl)-1,3-thiazol-4(5H)-one] to `O=C1N=C(N2CCC3(CC2)OCc2ccccc23)SC1=C1CCCC1` [Example 53, 5-cyclopentylidene-2-(1′H,3H-spiro[2-benzofuran-1,4′-piperidin]-1′-yl)-1,3-thiazol-4(5H)-one], the “pKi hV1a” value falls from 8.5 to 8.3.

First: O=C1N=C(N2CCC3(CC2)OCc2ccccc23)S/C1=C1/CCc2cc(O)ccc21 [Example 54, (5E/Z)-5-(5-hydroxy-2,3-dihydro-1H-inden-1-ylidene)-2-(1′H,3H-spiro[2-benzofuran-1,4′-piperidin]-1′-yl)-1,3-thiazol-4(5H)-one]
Second: O=C1N=C(N2CCC3(CC2)OCc2ccccc23)S/C1=C1/CCNC(=O)c2cc(Cl)ccc21 [Example 67, (5E/Z)-8-chloro-5-[4-oxo-2-(1′H,3H-spiro[2-benzofuran-1,4′-piperidin]-1′-yl)-1,3-thiazol-5(4H)-ylidene]-2,3,4,5-tetrahydro-1H-2-benzazepin-1-one]
The “pKi hV1a” value of the first is lower: 7.5 for the first, 8.7 for the second.

Going from `O=C1N=C(N2CCC3(CC2)OCc2ccccc23)S/C1=C1/CC2C3CC4C2C4C13` (stereo not shown) [Example 55, (5E/Z)-5-[hexahydro-1,2,4-(methanetriyl)pentalen-5(1H)-ylidene]-2-(1′H,3H-spiro[2-benzofuran-1,4′-piperidin]-1′-yl)-1,3-thiazol-4(5H)-one] to `O=C1N=C(N2CCC3(CC2)OCc2ccccc23)SC1=C1CCC1` [Example 75, 5-cyclobutylidene-2-(1′H,3H-spiro[2-benzofuran-1,4′-piperidin]-1′-yl)-1,3-thiazol-4(5H)-one], the “pKi hV1a” value falls from 8.3 to 7.6.

First: C/C(=C1\SC(N2CCC3(CC2)OCc2ccccc23)=NC1=O)c1ccccc1F [Example 56, (5E)-5-[1-(2-fluorophenyl)ethylidene]-2-(1′H,3H-spiro[2-benzofuran-1,4′-piperidin]-1′-yl)-1,3-thiazol-4(5H)-one]
Second: C/C(=C1/SC(N2CCC3(CC2)OCc2ccccc23)=NC1=O)c1ccccc1F [Example 57, (5Z)-5-[1-(2-fluorophenyl)ethylidene]-2-(1′H,3H-spiro[2-benzofuran-1,4′-piperidin]-1′-yl)-1,3-thiazol-4(5H)-one]
The “pKi hV1a” value of the first is lower: 8.3 for the first, 9.0 for the second.

Going from `C/C(CO[Si](C)(C)C(C)(C)C)=C1\SC(N2CCC3(CC2)OCc2ccccc23)=NC1=O` [Example 58, (5E)-5-(1-{[tert-butyl(dimethyl)silyl]oxy}propan-2-ylidene)-2-(1′H,3H-spiro[2-benzofuran-1,4′-piperidin]-1′-yl)-1,3-thiazol-4(5H)-one] to `C/C(CO[Si](C)(C)C(C)(C)C)=C1/SC(N2CCC3(CC2)OCc2ccccc23)=NC1=O` [Example 59, (5Z)-5-(1-{[tert-butyl(dimethyl)silyl]oxy}propan-2-ylidene)-2-(1′H,3H-spiro[2-benzofuran-1,4′-piperidin]-1′-yl)-1,3-thiazol-4(5H)-one], the “pKi hV1a” value falls from 7.2 to 6.5.

Compared with `O=C1N=C(N2CCC3(CC2)OCc2ccccc23)SC1=C1CCS(=O)(=O)CC1` [Example 60, 5-(1,1-dioxidotetrahydro-4H-thiopyran-4-ylidene)-2-(1′H,3H-spiro[2-benzofuran-1,4′-piperidin]-1′-yl)-1,3-thiazol-4(5H)-one], `CS(=O)(=O)N1CCC(=C2SC(N3CCC4(CC3)OCc3ccccc34)=NC2=O)CC1` [Example 68, 5-[1-(methylsulfonyl)piperidin-4-ylidene]-2-(1′H,3H-spiro[2-benzofuran-1,4′-piperidin]-1′-yl)-1,3-thiazol-4(5H)-one] is lower in “pKi hV1a” value: 8.0 for the first, 7.7 for the second.

First: C/C(=C1/SC(N2CCC3(CC2)OCc2ccccc23)=NC1=O)c1cccnc1F [Example 61, (5Z)-5-[1-(2-fluoropyridin-3-yl)ethylidene]-2-(1′H,3H-spiro[2-benzofuran-1,4′-piperidin]-1′-yl)-1,3-thiazol-4(5H)-one]
Second: C/C(=C1/SC(N2CCC3(CC2)OCc2ccccc23)=NC1=O)c1ccnc(C)c1 [Example 77, (5E/Z)-5-[1-(2-methylpyridin-4-yl)ethylidene]-2-(1′H,3H-spiro[2-benzofuran-1,4′-piperidin]-1′-yl)-1,3-thiazol-4(5H)-one]
The “pKi hV1a” value of the first is higher: 9.1 for the first, 7.6 for the second.

`C/C(=C1/SC(N2CCC3(CC2)OCc2ccccc23)=NC1=O)c1cnn(C)c1` [Example 62, (5Z)-5-[1-(1-methyl-1H-pyrazol-4-yl)ethylidene]-2-(1′H,3H-spiro[2-benzofuran-1,4′-piperidin]-1′-yl)-1,3-thiazol-4(5H)-one] and `C/C(=C1/SC(N2CCC3(CC2)OCc2ccccc23)=NC1=O)c1cc(C)on1` [Example 79] are within 0.2 log units of each other in “pKi hV1a” value: 8.3 for the first, 8.4 for the second.

Compared with `CC/C(=C1/SC(N2CCC3(CC2)OCc2ccccc23)=NC1=O)c1cc(C)on1` [Example 64, (5E/Z)-5-[1-(5-methyl-1,2-oxazol-3-yl)propylidene]-2-(1′H,3H-spiro[2-benzofuran-1,4′-piperidin]-1′-yl)-1,3-thiazol-4(5H)-one], `C/C(CN)=C1\SC(N2CCC3(CC2)OCc2ccccc23)=NC1=O.Cl` [Example 66, (5E)-5-(1-aminopropan-2-ylidene)-2-(1′H,3H-spiro[2-benzofuran-1,4′-piperidin]-1′-yl)-1,3-thiazol-4(5H)-one hydrochloride (1:1)] is lower in “pKi hV1a” value: 8.6 for the first, 6.6 for the second.

`C/C(CNC(=O)OC(C)(C)C)=C1\SC(N2CCC3(CC2)OCc2ccccc23)=NC1=O` [Example 65, tert-butyl {(2E)-2-[4-oxo-2-(1′H,3H-spiro[2-benzofuran-1,4′-piperidin]-1′-yl)-1,3-thiazol-5(4H)-ylidene]propyl}carbamate] and `C=C/C(C)=C1\SC(N2CCC3(CC2)OCc2ccccc23)=NC1=O` [Example 70, (5E/Z)-5-(but-3-en-2-ylidene)-2-(1′H,3H-spiro[2-benzofuran-1,4′-piperidin]-1′-yl)-1,3-thiazol-4(5H)-one] are within 0.2 log units of each other in “pKi hV1a” value: 7.7 for the first, 7.6 for the second.

Compared with `O=C1N=C(N2CCC3(CC2)OCc2ccccc23)SC1=C(CF)CF` [Example 69, 5-(1,3-difluoropropan-2-ylidene)-2-(1′H,3H-spiro[2-benzofuran-1,4′-piperidin]-1′-yl)-1,3-thiazol-4(5H)-one], `C/C(=C1/SC(N2CCC3(CC2)OCc2ccccc23)=NC1=O)C(F)(F)F` [Example 71, (5Z)-2-(1′H,3H-spiro[2-benzofuran-1,4′-piperidin]-1′-yl)-5-(1,1,1-trifluoropropan-2-ylidene)-1,3-thiazol-4(5H)-one] is higher in “pKi hV1a” value: 8.0 for the first, 8.3 for the second.

Compared with `CC(=O)OCC(COC(C)=O)=C1SC(N2CCC3(CC2)OCc2ccccc23)=NC1=O` [Example 72, 2-[4-oxo-2-(1′H,3H-spiro[2-benzofuran-1,4′-piperidin]-1′-yl)-1,3-thiazol-5(4H)-ylidene]propane-1,3-diyl diacetate], `C/C(=C1/SC(N2CCC3(CC2)OCc2ccccc23)=NC1=O)C1CCOCC1` [Example 78, (5E/Z)-2-(1′H,3H-spiro[2-benzofuran-1,4′-piperidin]-1′-yl)-5-[1-(tetrahydro-2H-pyran-4-yl)ethylidene]-1,3-thiazol-4(5H)-one] is lower in “pKi hV1a” value: 8.3 for the first, 7.9 for the second.

Going from `COC1CCCC/C1=C1/SC(N2CCC3(CC2)OCc2ccccc23)=NC1=O` (stereo not shown) [Example 73, (5E/Z)-5-(2-methoxycyclohexylidene)-2-(1′H,3H-spiro[2-benzofuran-1,4′-piperidin]-1′-yl)-1,3-thiazol-4(5H)-one] to `O=C1N=C(N2CCC3(CC2)OCc2ccccc23)S/C1=C1/CCCOC1` [Example 76, (5E/Z)-5-(dihydro-2H-pyran-3(4H)-ylidene)-2-(1′H,3H-spiro[2-benzofuran-1,4′-piperidin]-1′-yl)-1,3-thiazol-4(5H)-one], the “pKi hV1a” value falls from 8.8 to 7.8.

Going from `O=C1N=C(N2CCC3(CC2)OCc2ccccc23)S/C1=C1/C(=O)Nc2ccccc21` [Example 74, (3E/Z)-3-[4-oxo-2-(1′H,3H-spiro[2-benzofuran-1,4′-piperidin]-1′-yl)-1,3-thiazol-5(4H)-ylidene]-1,3-dihydro-2H-indol-2-one] to `CC(C)(C)OC(=O)N1CCC/C(=C2/SC(N3CCC4(CC3)OCc3ccccc34)=NC2=O)CC1` [Example 80, tert-butyl (4E/Z)-4-[4-oxo-2-(1′H,3H-spiro[2-benzofuran-1,4′-piperidin]-1′-yl)-1,3-thiazol-5(4H)-ylidene]azepane-1-carboxylate], the “pKi hV1a” value falls from 7.5 to 7.1.
